Test results published in the NIST ThermoML archive (doi:10.1021/je0604481).

Experiment: mn = molality of the nth substance listed, in mol/kg
Conditions: Liquid; for viscosity: Capillary tube (Ostwald / Ubbelohde) method; for mass density: Constant-volume piezometry

O=S(=O)([O-])[O-].[Mg+2] [magnesium sulfate] + O
Conditions | mass density [kg/m3] | viscosity [mPa·s]
348.15 K, 100 kPa, m1 = 2.291 | – | 1.503
348.15 K, 101 kPa, m1 = 0.084 | 984.5 | –
348.15 K, 101 kPa, m1 = 0.261 | 1004.83 | –
348.15 K, 101 kPa, m1 = 0.469 | 1028.4 | –
348.15 K, 101 kPa, m1 = 0.841 | 1069.05 | –
348.15 K, 10000 kPa, m1 = 0.437 | – | 0.4948
348.15 K, 10000 kPa, m1 = 2.291 | – | 1.514
348.15 K, 30000 kPa, m1 = 0.437 | – | 0.5024
348.15 K, 30000 kPa, m1 = 2.291 | – | 1.536
348.2 K, 100 kPa, m1 = 1.824 | – | 1.127
348.2 K, 10000 kPa, m1 = 1.824 | – | 1.135
348.2 K, 30000 kPa, m1 = 1.824 | – | 1.151
348.23 K, 2118 kPa, m1 = 2.224 | 1208.2 | –
348.23 K, 8002 kPa, m1 = 2.224 | 1210.4 | –
348.23 K, 14710 kPa, m1 = 2.224 | 1212.2 | –
348.23 K, 25300 kPa, m1 = 2.224 | 1215.7 | –
348.23 K, 30020 kPa, m1 = 2.224 | 1217.1 | –
348.25 K, 100 kPa, m1 = 0.255 | – | 0.4399
348.25 K, 10000 kPa, m1 = 0.255 | – | 0.4432
348.25 K, 30000 kPa, m1 = 0.255 | – | 0.4502
348.32 K, 100 kPa, m1 = 0.085 | – | 0.3976
348.32 K, 10000 kPa, m1 = 0.085 | – | 0.4008
348.32 K, 30000 kPa, m1 = 0.085 | – | 0.4066
348.35 K, 100 kPa, m1 = 2.623 | – | 1.849
348.35 K, 10000 kPa, m1 = 2.623 | – | 1.863
348.35 K, 30000 kPa, m1 = 2.623 | – | 1.889
348.36 K, 100 kPa, m1 = 0.722 | – | 0.5831
348.36 K, 10000 kPa, m1 = 0.722 | – | 0.5875
348.36 K, 30000 kPa, m1 = 0.722 | – | 0.5961
348.75 K, 100 kPa, m1 = 0.923 | – | 0.6495
348.75 K, 10000 kPa, m1 = 0.923 | – | 0.6548
348.75 K, 30000 kPa, m1 = 0.923 | – | 0.6642
358.95 K, 101 kPa, m1 = 2.224 | 1200.88 | –
358.95 K, 101 kPa, m1 = 2.535 | 1228.61 | –
370.1 K, 100 kPa, m1 = 2.291 | – | 1.068
370.1 K, 10000 kPa, m1 = 2.291 | – | 1.078
370.1 K, 30000 kPa, m1 = 2.291 | – | 1.099
370.4 K, 100 kPa, m1 = 0.923 | – | 0.4894
370.4 K, 10000 kPa, m1 = 0.923 | – | 0.4945
370.4 K, 30000 kPa, m1 = 0.923 | – | 0.5035
370.45 K, 100 kPa, m1 = 0.085 | – | 0.3053
370.45 K, 100 kPa, m1 = 0.722 | – | 0.4386
370.45 K, 10000 kPa, m1 = 0.085 | – | 0.3084
370.45 K, 10000 kPa, m1 = 0.722 | – | 0.4433
370.45 K, 30000 kPa, m1 = 0.085 | – | 0.3144
370.45 K, 30000 kPa, m1 = 0.722 | – | 0.4516
370.75 K, 100 kPa, m1 = 2.623 | – | 1.295
370.75 K, 10000 kPa, m1 = 2.623 | – | 1.308
370.75 K, 30000 kPa, m1 = 2.623 | – | 1.333
371.44 K, 100 kPa, m1 = 1.824 | – | 0.804
371.44 K, 10000 kPa, m1 = 1.824 | – | 0.811
371.44 K, 30000 kPa, m1 = 1.824 | – | 0.827
371.9 K, 100 kPa, m1 = 0.437 | – | 0.3654
371.9 K, 10000 kPa, m1 = 0.437 | – | 0.3694
371.9 K, 30000 kPa, m1 = 0.437 | – | 0.3766
372.4 K, 100 kPa, m1 = 0.255 | – | 0.33
372.4 K, 10000 kPa, m1 = 0.255 | – | 0.3336
372.4 K, 30000 kPa, m1 = 0.255 | – | 0.34
373.22 K, 3020 kPa, m1 = 2.535 | 1220.3 | –
373.22 K, 6610 kPa, m1 = 2.535 | 1221.6 | –
373.22 K, 14380 kPa, m1 = 2.535 | 1224.1 | –
373.22 K, 21080 kPa, m1 = 2.535 | 1226.1 | –
373.22 K, 24710 kPa, m1 = 2.535 | 1227.4 | –
373.22 K, 29800 kPa, m1 = 2.535 | 1229 | –
373.24 K, 2275 kPa, m1 = 2.224 | 1192.8 | –
373.24 K, 7355 kPa, m1 = 2.224 | 1194.5 | –
373.24 K, 12870 kPa, m1 = 2.224 | 1196.4 | –
373.24 K, 20420 kPa, m1 = 2.224 | 1198.9 | –
373.24 K, 29820 kPa, m1 = 2.224 | 1201.7 | –
394.16 K, 10000 kPa, m1 = 2.623 | – | 0.963
394.16 K, 30000 kPa, m1 = 2.623 | – | 0.985
396.25 K, 10000 kPa, m1 = 0.923 | – | 0.377
396.25 K, 30000 kPa, m1 = 0.923 | – | 0.3862
397.1 K, 10000 kPa, m1 = 1.824 | – | 0.605
397.1 K, 30000 kPa, m1 = 1.824 | – | 0.619
397.14 K, 10000 kPa, m1 = 0.085 | – | 0.2381
397.14 K, 30000 kPa, m1 = 0.085 | – | 0.2437
398.15 K, 5810 kPa, m1 = 2.535 | 1203.8 | –
398.15 K, 11100 kPa, m1 = 2.535 | 1205.6 | –
398.15 K, 21700 kPa, m1 = 2.535 | 1209 | –
398.15 K, 29400 kPa, m1 = 2.535 | 1211.5 | –
398.19 K, 2452 kPa, m1 = 2.224 | 1175.3 | –
398.19 K, 7355 kPa, m1 = 2.224 | 1177.2 | –
398.19 K, 12080 kPa, m1 = 2.224 | 1178.9 | –
398.19 K, 19850 kPa, m1 = 2.224 | 1181.7 | –
398.19 K, 26220 kPa, m1 = 2.224 | 1183.8 | –
398.7 K, 10000 kPa, m1 = 2.291 | – | 0.774
398.7 K, 30000 kPa, m1 = 2.291 | – | 0.792
398.75 K, 10000 kPa, m1 = 0.437 | – | 0.2834
398.75 K, 30000 kPa, m1 = 0.437 | – | 0.2901
399.24 K, 10000 kPa, m1 = 0.722 | – | 0.3306
399.24 K, 30000 kPa, m1 = 0.722 | – | 0.3384
399.44 K, 10000 kPa, m1 = 0.255 | – | 0.2566
399.44 K, 30000 kPa, m1 = 0.255 | – | 0.2625
422.1 K, 10000 kPa, m1 = 1.824 | – | 0.477
422.1 K, 30000 kPa, m1 = 1.824 | – | 0.49
422.35 K, 10000 kPa, m1 = 0.923 | – | 0.3
422.35 K, 30000 kPa, m1 = 0.923 | – | 0.3081
422.7 K, 10000 kPa, m1 = 0.085 | – | 0.1945
422.7 K, 30000 kPa, m1 = 0.085 | – | 0.1999
423.85 K, 10000 kPa, m1 = 0.255 | – | 0.2113
423.85 K, 30000 kPa, m1 = 0.255 | – | 0.2169
424.13 K, 10000 kPa, m1 = 0.437 | – | 0.23
424.13 K, 30000 kPa, m1 = 0.437 | – | 0.2366
428.16 K, 10000 kPa, m1 = 0.722 | – | 0.2597
428.16 K, 30000 kPa, m1 = 0.722 | – | 0.2673
447.16 K, 10000 kPa, m1 = 0.255 | – | 0.1798
447.16 K, 30000 kPa, m1 = 0.255 | – | 0.1855
447.42 K, 10000 kPa, m1 = 0.437 | – | 0.1966
447.42 K, 30000 kPa, m1 = 0.437 | – | 0.2019
448.24 K, 10000 kPa, m1 = 0.085 | – | 0.1643
448.24 K, 30000 kPa, m1 = 0.085 | – | 0.1694
